From patent US20150250174A1, “USE OF N-THIO-ANTHRANILAMIDE COMPOUNDS ON CULTIVATED PLANTS” (BASF SE, priority 2012, published 2015)

Tests used:
[1] = tested on: Anticarsia gemmatalis; assay: Another test on a non-GM soybean variety (feeding damage); type: in vivo; conditions: 12.5 g a.i./ha
[2] = tested on: Anticarsia gemmatalis; conditions: 12.5 g a.i./ha; 5 days after application; GMO soybean BMX Potencia RR
[3] = tested on: Anticarsia gemmatalis; assay: whole plant or invertebrate; conditions: in Glycine max, 48 h, read-out: mortality 2 DAA

CCS(CC)=NC(=O)c1cc(Cl)cc(C)c1NC(=O)c1cc(C(F)(F)F)nn1-c1ncccc1Cl [compound I-11, 2-(3-chloro-2-pyridyl)-N-[2-methyl-4-chloro-6-[(diethyl-λ^4-sulfanylidene)carbamoyl]phenyl]-5-(trifluoromethyl)pyrazole-3-carboxamide]
reduction in feeding damage compared to the untreated controls [1]: 97% | reduction of feeding damage compared to the untreated controls [2]: 100% | mortality at 6.25 g/ha [3]: 83% | mortality at 50 g/ha [3]: 87%
